From publication PMC9897768, “Discovery of new 6-ureido/amidocoumarins as highly potent and selective inhibitors for the tumour-relevant carbonic anhydrases IX and XII” (Journal of Enzyme Inhibition and Medicinal Chemistry, 2023)

Tests used:
hCA IX = hCA IX (Homo sapiens, UniProt Q16790); assay: stopped-flow CO2 hydrase assay, hCA IX; format: biochemical; details: incubation time 6 h, mean of three experiments
Description: (§1) The target coumarins 5a–p and 7a–c were examined for their CA inhibitory actions towards the ubiquitous CA I and II (cytosolic) as well as the tumour-associated CA IX and XII isozymes by the use of a stopped-flow CO2 hydrase assay, using acetazolamide (AZA) as a reference compound.
(§2) The experimental procedures utilised for CA inhibitory assay of the target compounds were carried out as described earlier, and presented in the Supplementary Materials.

MCF-7 cells = assay: MTT antiproliferative assay, MCF-7; format: cell-based, human; details: Homo sapiens, mean ± SEM of three experiments; for inhibition at 10 µM: MCF7, MCF7, 10 µM, read-out: % Growth inhibition MCF7 10 µM; for inhibition at 100 µM: MCF7, MCF7, 100 µM, read-out: % Growth inhibition MCF7 100 µM
Description: (§3) Encouraged by the favourable selectivity profile of ureidocoumarins 5a–p and amidocoumarins 7a–c towards hCA IX and hCA XII, they were further examined for their prospective antiproliferative activity against human colorectal (HCT-116) and breast (MCF-7) cancer cell lines, adopting the MTT assay.
(§4) The evaluation of anticancer activity of the target compounds was conducted by MTT assay adopting the literature procedure.

hCA II = hCA II (Homo sapiens, UniProt P00918); assay: stopped-flow CO2 hydrase assay, hCA II; format: biochemical; details: incubation time 6 h, mean of three experiments
Description: as §1, §2

hCA XII = hCA XII (Homo sapiens, UniProt O43570); assay: stopped-flow CO2 hydrase assay, hCA XII; format: biochemical; details: incubation time 6 h, mean of three experiments
Chain of hCA XII (O43570 25-354): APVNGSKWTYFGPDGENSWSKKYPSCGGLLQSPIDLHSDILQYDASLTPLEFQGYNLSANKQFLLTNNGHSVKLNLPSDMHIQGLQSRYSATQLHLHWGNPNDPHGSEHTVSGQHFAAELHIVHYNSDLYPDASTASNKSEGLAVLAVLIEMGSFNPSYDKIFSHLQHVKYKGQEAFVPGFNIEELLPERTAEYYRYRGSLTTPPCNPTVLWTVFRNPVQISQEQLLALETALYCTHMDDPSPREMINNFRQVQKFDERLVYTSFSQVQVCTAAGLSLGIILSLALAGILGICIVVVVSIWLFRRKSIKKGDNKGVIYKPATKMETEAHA
Description: as §1, §2

hCA I = hCA I (Homo sapiens, UniProt P00915); assay: stopped-flow CO2 hydrase assay, hCA I; format: biochemical; details: incubation time 6 h, mean of three experiments
Chain of hCA I (P00915 whole entry): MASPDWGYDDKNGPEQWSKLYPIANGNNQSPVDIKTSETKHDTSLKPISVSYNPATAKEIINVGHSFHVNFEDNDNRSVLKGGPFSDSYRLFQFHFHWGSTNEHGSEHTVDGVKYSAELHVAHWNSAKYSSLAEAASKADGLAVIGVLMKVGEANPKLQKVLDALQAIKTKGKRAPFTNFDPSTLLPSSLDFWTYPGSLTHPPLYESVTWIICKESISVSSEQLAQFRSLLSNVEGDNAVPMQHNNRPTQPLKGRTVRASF
Description: as §1, §2

HCT-116 cells = assay: MTT antiproliferative assay, HCT-116; format: cell-based, human; details: Homo sapiens, mean ± SEM of three experiments; for inhibition at 10 µM: HCT-116, HCT116, 10 µM, read-out: % Growth inhibition HCT116 10 µM; for inhibition at 100 µM: HCT-116, HCT116, 100 µM, read-out: % Growth inhibition HCT116 100 µM
Description: as §3, §4

Structure (SMILES)	Ki (hCA IX)	inhibition at 10 µM (MCF-7 cells)	inhibition at 100 µM (MCF-7 cells)	Ki (hCA II)	Ki (hCA XII)	melting point	Ki (hCA I)	inhibition at 10 µM (HCT-116 cells)	inhibition at 100 µM (HCT-116 cells)
O=C(Nc1ccc2oc(=O)ccc2c1)c1ccc(Cl)c(C(F)(F)F)c1 [Compound 7a, 4-Chloro-N-(2-oxo-2H-chromen-6-yl)-3-(trifluoromethyl)benzamide]	82.4 nM	9.9 ± 3.4%	19 ± 2.1%	> 100000 nM	42.8 nM	272 to 273 °C	> 100000 nM	14 ± 2.4%	42.2 ± 2.5%
O=C(Nc1ccc(C(F)(F)F)cc1)Nc1ccc2oc(=O)ccc2c1 [Compound 5b]	71.4 nM	4.2 ± 1.4%	77.8 ± 5.1%	> 100000 nM	38.5 nM	276 to 278 °C	> 100000 nM	7.6 ± 2.8%	77 ± 4%
O=C(Nc1cc(Cl)cc(Cl)c1)Nc1ccc2oc(=O)ccc2c1 [Compound 5j, 1-(3,5-Dichlorophenyl)-3-(2-oxo-2H-chromen-6-yl)urea]	19.9 nM	6.1 ± 2%	91.1 ± 0.6%	> 100000 nM	23.4 nM	252 to 253 °C	> 100000 nM	19.2 ± 3.8%	91.9 ± 1.1%
O=C(Nc1ccc2oc(=O)ccc2c1)c1cc(C(F)(F)F)cc(C(F)(F)F)c1 [Compound 7b, N-(2-Oxo-2H-chromen-6-yl)-3,5-bis(trifluoromethyl)benzamide]	55.6 nM	11.3 ± 4%	62.9 ± 6.4%	> 100000 nM	37.5 nM	240 to 241 °C	> 100000 nM	19.6 ± 2.4%	76 ± 2.5%
O=C(Nc1ccc2oc(=O)ccc2c1)Nc1ccc(F)cc1F [Compound 5m, 1-(2,4-Difluorophenyl)-3-(2-oxo-2H-chromen-6-yl)urea]	25.6 nM	15.2 ± 1.4%	22.7 ± 3.3%	> 100000 nM	7.2 nM	–	> 100000 nM	25.7 ± 2.3%	26.1 ± 4%
O=C(Nc1ccc2oc(=O)ccc2c1)c1cc(F)cc(F)c1 [Compound 7c, 3,5-Difluoro-N-(2-oxo-2H-chromen-6-yl)benzamide]	61 nM	21.1 ± 3.3%	21.4 ± 4.7%	> 100000 nM	40.5 nM	301 to 303 °C	> 100000 nM	21.8 ± 3%	52 ± 5.1%
Cc1cccc(Cl)c1NC(=O)Nc1ccc2oc(=O)ccc2c1 [Compound 5o, 1-(2-Chloro-6-methylphenyl)-3-(2-oxo-2H-chromen-6-yl)urea]	19.2 nM	30.3 ± 1.5%	72.8 ± 5.5%	> 100000 nM	13.8 nM	–	> 100000 nM	9.7 ± 4%	78.6 ± 3.7%
O=C(Nc1ccc(F)cc1)Nc1ccc2oc(=O)ccc2c1 [Compound 5c, 1-(4-Fluorophenyl)-3-(2-oxo-2H-chromen-6-yl)urea]	41.5 nM	9.5 ± 4.2%	13.5 ± 4.3%	> 100000 nM	40.2 nM	249 to 250 °C	> 100000 nM	10.9 ± 1.6%	31.3 ± 4.6%
CCCCOc1ccc(NC(=O)Nc2ccc3oc(=O)ccc3c2)cc1 [Compound 5f, 1-(4-Butoxyphenyl)-3-(2-oxo-2H-chromen-6-yl)urea]	32.5 nM	32.3 ± 2.6%	46.9 ± 3.4%	> 100000 nM	81.8 nM	234 to 235 °C	> 100000 nM	15 ± 5.2%	67.7 ± 0.6%
